# Test results reported in paper PMC10178848, “Modulating fast skeletal muscle contraction protects skeletal muscle in animal models of Duchenne muscular dystrophy” (The Journal of Clinical Investigation, 2023).
# Tested on: psoas S1 (fast skeletal muscle myosin)
# Assay: Stopped-flow analysis of Pi release from myosin
# Assay type: biochemical, rabbit
# Set-up: dose or concentration left out as unconfirmed
# Settings: preincubation with myosin 30 minutes prior to actin
# Protocol: The rate of Pi release from myosin with actin utilized a fluorescent phosphate binding protein, as described previously ([63]). Experiments were performed in 10 mM MOPS, pH 7.0; 5 mM KCL; 1 mM EGTA; 1 mM DTT; 0.5 mM MgCl2. ATP and ADP were removed by incubation with apyrase ([64]). Prior to mixing with 1 mM ATP in a stopped flow device, compound was incubated with 6 μM psoas S1 at 25°C for 30 minutes.
smiles,measurement,value
"Cc1ccc(S(=O)(=O)NCc2ccccc2)cc1 [BTS, N-benzyl-p-toluene sulfonamide, reference compound]",rate of Pi release from myosin with actin,decreased the rate of Pi release
